Test system: 873145-292-R-J1-PDC complex spheroid viability
Assay: Anticancer human tumor 873145-292-R-J1-PDC patient-derived renal clear cell carcinoma cell line growth inhibition [POLQ]
Details: for IC50: curve of first compound; for viability, T/C: stronger effect = lower value; active = viability on the fitted dose curve at most 10% of control; inactive = the rest
How it was run: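 Complex spheroid viability model combining PDC tumour cells with endothelial (HUVEC) and MSC stromal cells. Novobiocin, ART-558 or RP6685 were tested singly and in combination with standard and investigational anticancer drugs. Each was titrated in half-log steps from near clinical Cmax, or from 10 microM where Cmax was unknown.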

[1] = second compound 0.0316 µM, first compound 0.0316 µM
[2] = second compound 0.0316 µM, first compound 0.1 µM
[3] = second compound 0.0316 µM, first compound 0.316 µM
[4] = second compound 0.0316 µM, first compound 1 µM
[5] = second compound 0.0316 µM, first compound 3.16 µM
[6] = second compound 0.0316 µM, first compound 10 µM
[7] = second compound 0.1 µM, first compound 0.0316 µM
[8] = second compound 0.1 µM, first compound 0.1 µM
[9] = second compound 0.1 µM, first compound 0.316 µM
[10] = second compound 0.1 µM, first compound 1 µM
[11] = second compound 0.1 µM, first compound 3.16 µM
[12] = second compound 0.1 µM, first compound 10 µM
[13] = second compound 0.316 µM, first compound 0.0316 µM
[14] = second compound 0.316 µM, first compound 0.1 µM
[15] = second compound 0.316 µM, first compound 0.316 µM
[16] = second compound 0.316 µM, first compound 1 µM
[17] = second compound 0.316 µM, first compound 3.16 µM
[18] = second compound 0.316 µM, first compound 10 µM
[19] = second compound 1 µM, first compound 0.0316 µM
[20] = second compound 1 µM, first compound 0.1 µM
[21] = second compound 1 µM, first compound 0.316 µM
[22] = second compound 1 µM, first compound 1 µM
[23] = second compound 1 µM, first compound 3.16 µM
[24] = second compound 1 µM, first compound 10 µM
[25] = second compound 3.16 µM, first compound 0.0316 µM
[26] = second compound 3.16 µM, first compound 0.1 µM
[27] = second compound 3.16 µM, first compound 0.316 µM
[28] = second compound 3.16 µM, first compound 1 µM
[29] = second compound 3.16 µM, first compound 3.16 µM
[30] = second compound 3.16 µM, first compound 10 µM
[31] = second compound 10 µM, first compound 0.0316 µM
[32] = second compound 10 µM, first compound 0.1 µM
[33] = second compound 10 µM, first compound 0.316 µM
[34] = second compound 10 µM, first compound 1 µM
[35] = second compound 10 µM, first compound 3.16 µM
[36] = second compound 10 µM, first compound 10 µM
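Note: spheroids exposed to compounds for 7 days before viability readout.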
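Throughout, for viability, T/C: luminescence signal used as surrogate for viable cell content; 100% = DMSO vehicle control viability.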

CC(C)n1c(=O)n(C)c2cnc3cc(F)c(-c4ccc(OCCCN5CCCCC5)nc4)cc3c21 + Nc1ccc(C#CCN(C(=O)Cc2ncc(C(F)(F)F)cc2C(F)(F)F)c2ccc(F)cc2)nn1
> 10 µM: IC50 (second compound 0.0316 µM) | IC50 (second compound 0.1 µM) | IC50 (second compound 0.316 µM) | IC50 (second compound 1 µM) | IC50 (second compound 3.16 µM) | IC50 (second compound 10 µM)
inactive: viability, T/C [1] 97.1% | viability, T/C [2] 106% | viability, T/C [3] 97.8% | viability, T/C [4] 102% | viability, T/C [5] 99.6% | viability, T/C [6] 107% | viability, T/C [7] 107% | viability, T/C [8] 112% | viability, T/C [9] 97.1% | viability, T/C [10] 108% | viability, T/C [11] 93.8% | viability, T/C [12] 80.5% | viability, T/C [13] 104% | viability, T/C [14] 115% | viability, T/C [15] 97% | viability, T/C [16] 103% | viability, T/C [17] 104% | viability, T/C [18] 72.1% | viability, T/C [19] 109% | viability, T/C [20] 106% | viability, T/C [21] 113% | viability, T/C [22] 96% | viability, T/C [23] 97% | viability, T/C [24] 85.8% | viability, T/C [25] 99.8% | viability, T/C [26] 111% | viability, T/C [27] 92.4% | viability, T/C [28] 102% | viability, T/C [29] 101% | viability, T/C [30] 86.1% | viability, T/C [31] 110% | viability, T/C [32] 101% | viability, T/C [33] 108% | viability, T/C [34] 107% | viability, T/C [35] 104% | viability, T/C [36] 86%

CC1COCCN1c1cc(-c2ccnn2C)c2ccnc(-c3ccn[nH]3)c2n1 (stereo not drawn) + Nc1ccc(C#CCN(C(=O)Cc2ncc(C(F)(F)F)cc2C(F)(F)F)c2ccc(F)cc2)nn1
6.51 µM: IC50 (second compound 1 µM)
inactive: viability, T/C [1] 87.5% | viability, T/C [2] 89.8% | viability, T/C [3] 79.2% | viability, T/C [4] 55.6% | viability, T/C [5] 56.2% | viability, T/C [6] 55.3% | viability, T/C [7] 102% | viability, T/C [8] 80.7% | viability, T/C [9] 77.7% | viability, T/C [10] 53.8% | viability, T/C [11] 57.6% | viability, T/C [12] 54.7% | viability, T/C [13] 95.5% | viability, T/C [14] 99.1% | viability, T/C [15] 70.2% | viability, T/C [16] 60.9% | viability, T/C [17] 51.7% | viability, T/C [18] 53.5% | viability, T/C [19] 96.2% | viability, T/C [20] 86.9% | viability, T/C [21] 78.8% | viability, T/C [22] 58.9% | viability, T/C [23] 58.5% | viability, T/C [24] 45.9% | viability, T/C [25] 88.7% | viability, T/C [26] 94.1% | viability, T/C [27] 79.1% | viability, T/C [28] 59.7% | viability, T/C [29] 49.3% | viability, T/C [30] 66.1% | viability, T/C [31] 102% | viability, T/C [32] 90.1% | viability, T/C [33] 80% | viability, T/C [34] 64.6% | viability, T/C [35] 55.9% | viability, T/C [36] 60.1%
> 10 µM: IC50 (second compound 0.0316 µM) | IC50 (second compound 0.1 µM) | IC50 (second compound 0.316 µM) | IC50 (second compound 3.16 µM) | IC50 (second compound 10 µM)

CC1COCCN1c1cc(C2(S(C)(=N)=O)CC2)nc(-c2ccnc3[nH]ccc23)n1 (stereo not drawn) + Nc1ccc(C#CCN(C(=O)Cc2ncc(C(F)(F)F)cc2C(F)(F)F)c2ccc(F)cc2)nn1
inactive: viability, T/C [1] 103% | viability, T/C [2] 99.2% | viability, T/C [3] 102% | viability, T/C [4] 80.5% | viability, T/C [5] 73.9% | viability, T/C [6] 71% | viability, T/C [7] 107% | viability, T/C [8] 98.4% | viability, T/C [9] 82% | viability, T/C [10] 83.3% | viability, T/C [11] 88.9% | viability, T/C [12] 67.8% | viability, T/C [13] 102% | viability, T/C [14] 92.8% | viability, T/C [15] 84.7% | viability, T/C [16] 92.3% | viability, T/C [17] 78.2% | viability, T/C [18] 69.6% | viability, T/C [19] 90.7% | viability, T/C [20] 90% | viability, T/C [21] 90.8% | viability, T/C [22] 88.5% | viability, T/C [23] 80.2% | viability, T/C [24] 64.4% | viability, T/C [25] 92.2% | viability, T/C [26] 97.1% | viability, T/C [27] 101% | viability, T/C [28] 82.8% | viability, T/C [29] 82% | viability, T/C [30] 73.2% | viability, T/C [31] 105% | viability, T/C [32] 106% | viability, T/C [33] 103% | viability, T/C [34] 110% | viability, T/C [35] 85.5% | viability, T/C [36] 81.3%
> 10 µM: IC50 (second compound 0.0316 µM) | IC50 (second compound 0.1 µM) | IC50 (second compound 0.316 µM) | IC50 (second compound 1 µM) | IC50 (second compound 3.16 µM) | IC50 (second compound 10 µM)

COc1ccc([C@@H](O)c2cc(-c3ncnc4cc(N5CCOCC5)ccc34)c(F)cc2Cl)nn1 + Nc1ccc(C#CCN(C(=O)Cc2ncc(C(F)(F)F)cc2C(F)(F)F)c2ccc(F)cc2)nn1
5.16 µM: IC50 (second compound 0.316 µM)
4.69 µM: IC50 (second compound 0.0316 µM)
5.93 µM: IC50 (second compound 3.16 µM)
> 10 µM: IC50 (second compound 10 µM)
6.14 µM: IC50 (second compound 1 µM)
5.13 µM: IC50 (second compound 0.1 µM)
inactive: viability, T/C [1] 102% | viability, T/C [2] 91.9% | viability, T/C [3] 86.2% | viability, T/C [4] 64.2% | viability, T/C [5] 54.1% | viability, T/C [6] 44.4% | viability, T/C [7] 92.8% | viability, T/C [8] 91.4% | viability, T/C [9] 82.9% | viability, T/C [10] 64.9% | viability, T/C [11] 58.1% | viability, T/C [12] 42.2% | viability, T/C [13] 90.8% | viability, T/C [14] 114% | viability, T/C [15] 76.1% | viability, T/C [16] 67.3% | viability, T/C [17] 60.7% | viability, T/C [18] 41.1% | viability, T/C [19] 92.4% | viability, T/C [20] 85.4% | viability, T/C [21] 92.1% | viability, T/C [22] 78.6% | viability, T/C [23] 59.8% | viability, T/C [24] 43% | viability, T/C [25] 99.5% | viability, T/C [26] 93.6% | viability, T/C [27] 81.4% | viability, T/C [28] 74% | viability, T/C [29] 51% | viability, T/C [30] 47.3% | viability, T/C [31] 104% | viability, T/C [32] 105% | viability, T/C [33] 86.5% | viability, T/C [34] 81% | viability, T/C [35] 60% | viability, T/C [36] 53.6%

— PubChem BioAssay AID1963834 (Molecular Pharmacology Branch, DTP, NCI, 2024)
